Patent US7713994B2 (Wyeth LLC, priority 2005, dated 2010)
Where two headings read alike, the source gives them in different places.

Columns and labels:
cyclin E/CDK2 enzyme = target: T1, cyclin E/CDK2 enzyme (Homo sapiens, UniProt P24941); experiment: CDK2 ELISA kinase assay (phospho-Rb ser 795 detection); assay type: biochemical
T1 construct: made in house; host or cells: Sf9 insect cells, recombinant baculovirus
Procedure, shortened: (§1)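 Inhibition was derived from A450 relative to control wells lacking compound, following an anti-phospho-Rb Ser795 sandwich of HRP detection. The reactions combined coated GST-Rb fragment, 200 μM ATP and baculovirus-expressed cyclin/CDK enzymes, incubated for 1 h at 30° C.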

cyclin B/CDK1 enzyme = target: T2, cyclin B/CDK1 enzyme (Homo sapiens, UniProt P06493); experiment: CDK1 ELISA kinase assay (phospho-Rb ser 795 detection); assay type: biochemical
T2 construct: purchased New England BioLabs; host or cells: Sf9 insect cells, recombinant baculovirus
T2 sequence (P06493 whole entry): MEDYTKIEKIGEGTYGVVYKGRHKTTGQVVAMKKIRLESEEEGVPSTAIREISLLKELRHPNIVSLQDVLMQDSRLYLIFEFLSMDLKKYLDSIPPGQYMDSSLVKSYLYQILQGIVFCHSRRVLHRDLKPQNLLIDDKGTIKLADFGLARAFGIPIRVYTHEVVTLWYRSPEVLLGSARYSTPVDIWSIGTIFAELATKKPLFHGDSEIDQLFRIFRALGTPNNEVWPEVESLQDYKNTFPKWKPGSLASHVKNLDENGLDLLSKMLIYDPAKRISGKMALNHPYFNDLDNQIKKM
T2 sequence (P14635 whole entry partner): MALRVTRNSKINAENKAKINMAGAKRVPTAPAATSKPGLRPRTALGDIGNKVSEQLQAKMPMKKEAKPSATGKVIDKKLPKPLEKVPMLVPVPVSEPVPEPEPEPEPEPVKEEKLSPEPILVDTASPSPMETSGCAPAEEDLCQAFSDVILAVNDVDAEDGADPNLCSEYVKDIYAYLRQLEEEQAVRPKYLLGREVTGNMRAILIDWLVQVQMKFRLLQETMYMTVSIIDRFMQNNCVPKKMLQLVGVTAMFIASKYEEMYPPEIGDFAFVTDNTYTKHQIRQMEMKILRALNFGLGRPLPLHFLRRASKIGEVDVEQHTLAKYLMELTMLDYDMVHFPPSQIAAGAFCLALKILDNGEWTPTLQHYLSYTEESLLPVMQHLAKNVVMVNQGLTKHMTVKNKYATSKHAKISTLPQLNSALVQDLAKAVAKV
Procedure, shortened: as §1

cyclin D1/cdk 4 enzyme = target: T3, cyclin D1/cdk 4 enzyme (Homo sapiens, UniProt P11802); experiment: CDK4 ELISA kinase assay (phospho-Rb ser 795 detection); assay type: biochemical; details: 200 μM ATP
T3 construct: made in house; host or cells: Sf9 insect cells, recombinant baculovirus
T3 sequence (P11802 whole entry, species assumed): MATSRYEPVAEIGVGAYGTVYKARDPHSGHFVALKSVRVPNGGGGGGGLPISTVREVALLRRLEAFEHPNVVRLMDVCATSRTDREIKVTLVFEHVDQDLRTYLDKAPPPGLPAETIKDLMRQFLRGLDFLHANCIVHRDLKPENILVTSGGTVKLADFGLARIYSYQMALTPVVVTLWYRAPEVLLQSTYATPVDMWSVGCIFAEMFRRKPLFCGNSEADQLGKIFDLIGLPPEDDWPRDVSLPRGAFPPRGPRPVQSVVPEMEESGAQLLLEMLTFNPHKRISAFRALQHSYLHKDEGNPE
T3 sequence (P24385 whole entry partner, species assumed): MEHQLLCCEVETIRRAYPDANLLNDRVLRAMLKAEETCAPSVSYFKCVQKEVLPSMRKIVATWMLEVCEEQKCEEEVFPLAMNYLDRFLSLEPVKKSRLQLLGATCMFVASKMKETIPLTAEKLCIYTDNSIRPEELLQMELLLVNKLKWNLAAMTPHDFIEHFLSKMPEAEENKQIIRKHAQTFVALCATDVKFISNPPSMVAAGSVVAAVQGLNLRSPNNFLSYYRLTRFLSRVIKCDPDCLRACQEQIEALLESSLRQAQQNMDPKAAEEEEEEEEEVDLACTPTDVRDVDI
Procedure, shortened: as §1

BT474 = experiment: Cytotoxicity assay (SRB), BT474; assay type: cell-based; details: Homo sapiens, BT-474, 144 h, read-out: In Vitro Cellular Activity IC50 BT474
Procedure, shortened: (§2)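 BT474 (12000 cells/well) was treated for 6 days, whereas HCT-116 (4000), LoVo (6000) and MCF-7 (6000) were treated for 3 days, all in RPMI 1640 containing 5% FBS. Surviving-cell percentage came from SRB dye binding measured at 540 nm.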

HCT-116 = experiment: Cytotoxicity assay (SRB), HCT-116; assay type: cell-based; details: Homo sapiens, HCT-116, 72 h, read-out: In Vitro Cellular Activity IC50 HCT116
Procedure, shortened: as §2

LoVo = experiment: Cytotoxicity assay (SRB), LoVo; assay type: cell-based; details: Homo sapiens, LoVo, 72 h, read-out: In Vitro Cellular Activity IC50 LOVO
Procedure, shortened: as §2

MCF-7 = experiment: Cytotoxicity assay (SRB), MCF-7; assay type: cell-based; details: Homo sapiens, MCF7, 72 h, read-out: In Vitro Cellular Activity IC50 MCF-7
Procedure, shortened: as §2

[1] = In Vitro Enzyme Assays, read-out: CDK2 IC50
[2] = In Vitro Enzyme Assays, read-out: CDK1 IC50
[3] = In Vitro Enzyme Assays, read-out: CDK4 IC50
[4] = In Vitro Enzyme Assay, cyclin E/CDK2, read-out: CDK2 IC50

| SMILES | IC50 (cyclin E/CDK2 enzyme; [1]) | IC50 (cyclin B/CDK1 enzyme; [2]) | melting point | IC50 (cyclin D1/cdk 4 enzyme; [3]) | IC50 (BT474; BT474 cells, SRB, 6 days) | IC50 (HCT-116; HCT116 cells, SRB, three days) | IC50 (LoVo; LoVo cells, SRB, three days) | IC50 (MCF-7; MCF-7 cells, SRB, three days) | other results |
| --- | --- | --- | --- | --- | --- | --- | --- | --- | --- |
| CC(=O)Nc1ccc2c(c1)/C(=C/Nc1ccc(CN3CCCCC3)cc1)C(=O)NC2=O [Example 48] | 8.1 µM | > 50 µM | > 320 °C | – | – | – | – | – | – |
| CCCOc1ccc(CN/C=C2\C(=O)NC(=O)c3ccc(NC(=O)c4ccco4)cc32)cc1O [Example 197] | > 50 µM | > 50 µM | 233 to 234 °C | 12.3 µM | – | – | – | – | – |
| O=C1NC(=O)c2ccc(Br)cc2C1=CNc1ccc(-c2c[nH]cn2)cc1 [Example 164, 6-Bromo-4-{[4-(1H-imidazol-4-yl)-phenylamino]-methylene}-4H-isoquinolin-1,3-dione] | 11 µM | > 50 µM | > 300 °C (dec.) | 43.4 µM | – | – | – | – | – |
| CN(C)C(=O)c1ccc2c(c1)/C(=C/Nc1ccc(CN3CCCCC3)cc1)C(=O)NC2=O [Example 66, (4Z)-N,N-Dimethyl-1,3-dioxo-4-({[4-(piperidinylmethyl)phenyl]amino}methylene)-1,2,3,4-tetrahydroisoquinoline-6-carboxamide] | – | > 50 µM | 266 to 267 °C (dec.) | 21.2 µM | 3.1 µM | 3.4 µM | 4.2 µM | 4.3 µM | – |
| O=C1NC(=O)c2ccc(-c3cccc(O)c3)cc2/C1=C/Nc1ccc(CN2CCCCC2)cc1 [Example 96] | – | > 50 µM | 235 to 236 °C | 0.027 µM | 3.4 µM | 1.3 µM | 1.8 µM | 2 µM | – |
| O=C1NC(=O)c2ccccc2/C1=C/NCc1cccc(O)c1 [Example 63] | – | > 50 µM | 261 to 262 °C | 0.78 µM | 49 µM | > 50 µM | > 50 µM | > 50 µM | – |
| COc1ccc(CN/C=C2\C(=O)NC(=O)c3ccc(F)cc32)cc1O [Example 68] | – | > 50 µM | 200 to 201 °C | 0.17 µM | 14 µM | 15 µM | 19 µM | > 50 µM | – |
| CCN(CC)C(=O)Oc1cc(CN/C=C2\C(=O)NC(=O)c3ccc(I)cc32)ccc1OC [Example 99, 5-({[(Z)-(6-Iodo-1,3-dioxo-2,3-dihydroisoquinolin-4(1H)-ylidene)methyl]amino}methyl)-2-methoxyphenyl diethylcarbamate] | – | – | 128 to 130 °C | – | – | – | – | – | IC50 (cyclin D1/cdk 4 enzyme; CDK4 IC50, In Vitro Enzyme Assays): 1.4 µM; IC50 (cyclin E/CDK2 enzyme; CDK2 IC50, In Vitro Enzyme Assays): > 50 µM; IC50 (cyclin B/CDK1 enzyme; CDK1 IC50, In Vitro Enzyme Assays): > 50 µM |
| CN1CCN(c2ccc(N/C=C3\C(=O)NC(=O)c4ccc(C(=O)N(C)C)cc43)cc2)CC1 [Example 65, (4Z)-N,N-Dimethyl-4-({[4-(4-methylpiperazin-1-yl)phenyl]amino}methylene)-1,3-dioxo-1,2,3,4-tetrahydroisoquinoline-6-carboxamide] | 47 µM | > 50 µM | > 300 °C | 41 µM | – | – | – | – | – |
| CC1CN(c2ccc(N/C=C3\C(=O)NC(=O)c4ccc([N+](=O)[O-])cc43)cc2)CC(C)N1 (centres unmarked) [Example 235, (4Z)-4-({[4-(3,5-Dimethylpiperazin-1-yl)phenyl]amino}methylene)-6-nitroisoquinoline-1,3(2H,4H)-dione] | – | 25.3 µM | > 300 °C | 17.3 µM | 3 µM | 1.4 µM | 3.5 µM | 3.3 µM | – |
| O=C1NC(=O)c2ccc(-c3cccnc3)cc2/C1=C/Nc1ccc(CN2CCCCC2)cc1 [Example 102] | – | > 50 µM | 247 to 248 °C | 0.13 µM | > 50 µM | 11.5 µM | 43.3 µM | > 50 µM | – |
| O=C(O)CCCN/C=C1\C(=O)NC(=O)c2ccc(Br)cc21 [Example 314, (Z)-4-((6-Bromo-1,3-dioxo-2,3-dihydroisoquinolin-4(1H)-ylidene)methylamino)butanoic acid] | 37.1 µM | > 50 µM | 260 to 262 °C (dec.) | 1.5 µM | – | – | – | – | – |
| O=C1NC(=O)c2ccc(Br)cc2/C1=C/Nc1ccc(O)c(C(=O)O)c1 [Example 58, 5-{[(Z)-(6-Bromo-1,3-dioxo-2,3-dihydroisoquinolin-4(1H)-ylidene)methyl]amino}-2-hydroxybenzoic acid] | 19.4 µM | 31.8 µM | 336 to 337 °C | 12.4 µM | – | – | – | – | – |
| O=C(O)CCCN/C=C1\C(=O)NC(=O)c2ccc(-n3cccc3)cc21 [Example 315, (Z)-4-((1,3-Dioxo-6-(1H-pyrrol-1-yl)-2,3-dihydroisoquinolin-4(1H)-ylidene)methylamino)butanoic acid] | 31 µM | 43.4 µM | 230 to 240 °C (dec.) | 0.19 µM | – | – | – | – | – |
| CC(=O)Nc1ccc(CN/C=C2\C(=O)NC(=O)c3ccc(Br)cc32)cc1O [Example 142, N-[4-({[(Z)-(6-Bromo-1,3-dioxo-2,3-dihydroisoquinolin-4(1H)-′ylidene)methyl]amino}methyl)-2-hydroxyphenyl]acetamide] | – | > 50 µM | 252 to 253 °C | 0.02 µM | 0.66 µM | 1.2 µM | 2 µM | 31.1 µM | – |
| O=C1NC(=O)c2ccc(C3CCCC3)cc2/C1=C/NCc1cc(O)c(-c2ccoc2)cn1 [Example 537] | – | – | 279 to 283 °C (dec.) | – | – | – | – | – | IC50 (cyclin E/CDK2 enzyme; [4]): 1.3 µM; IC50 (BT474): 0.13 µM; IC50 (HCT-116): 0.81 µM; IC50 (LoVo): 0.3 µM; IC50 (MCF-7): 0.83 µM |
| COc1cc2c(cc1OC)/C(=C/Nc1ccc(N3CCN(C)CC3)cc1)C(=O)NC2=O [Example 37, (4Z)-6,7-Dimethoxy-4-({[4-(-methylpiperazin-1-yl)phenyl}amino)methylene] isoquinolin-1,3(2H,4H)-dione] | > 50 µM | > 50 µM | 273 to 274 °C | 14.8 µM | – | – | – | – | – |
| CC(N)(C(=O)O)c1ccc(NC=C2C(=O)NC(=O)c3ccc(Br)cc32)cc1 (centres unmarked) [Example 277, 2-Amino-2-{4-[(6-bromo-1,3-dioxo-2,3-dihydro-1H-isoquinolin-4-ylidenemethyl)-amino]-phenyl}-propionic acid] | 39.7 µM | > 50 µM | 250 to 253 °C | 35.5 µM | – | – | – | – | – |
| CN1CCN(c2ccc3c(c2)/C(=C/Nc2ccc(CN4CCCCC4)cc2)C(=O)NC3=O)CC1 [Example 123] | – | > 50 µM | 192 to 193 °C | 34.7 µM | 9.4 µM | 3.4 µM | 4.4 µM | 7.2 µM | – |
| CC(C)(C)c1ccc2c(c1)/C(=C/NCc1cc(O)c(-c3ccoc3)cn1)C(=O)NC2=O [Example 532, 6-tert-Butyl-4-{[(5-furan-3-yl-4-hydroxy-pyridin-2-ylmethyl)-amino]-methylene}-4H-isoquinoline-1,3-dione] | – | – | 215 to 230 °C (dec.) | – | – | – | – | – | IC50 (cyclin E/CDK2 enzyme; [4]): 1.9 µM; IC50 (BT474): 0.1 µM; IC50 (HCT-116): 0.48 µM; IC50 (LoVo): 0.27 µM; IC50 (MCF-7): 1.4 µM |
| O=C1NC(=O)c2ccc(N3CCOCC3)cc2/C1=C/Nc1ccc(CN2CCCCC2)cc1 [Example 120, (4Z)-6-Morpholin-4-yl-4-({[4-(piperidin-1-ylmethyl)phenyl]amino}methylene)isoquinoline-1,3(2H,4H)-dione] | – | > 50 µM | 216 to 217 °C | 0.92 µM | 8 µM | 4.3 µM | 7.7 µM | 21 µM | – |
| O=C1NC(=O)c2ccc(Br)cc2/C1=C/NCc1ccc(O)cc1 [Example 62] | 4.5 µM | > 50 µM | 296 to 297 °C | 31.1 µM | – | – | – | – | – |
| O=C1NC(=O)c2ccc(-c3ccc(F)cc3)cc2/C1=C/Nc1ccc(CN2CCCCC2)cc1 [Example 251, (4Z)-6-(4-Fluorophenyl)-4-({[4-(piperidin-1-′ylmethyl)phenyl]amino}methylene)isoquinoline-1,3(2H,4H)-dione] | – | > 50 µM | 195 to 196 °C | 0.31 µM | 1.1 µM | 1 µM | 1.7 µM | 0.55 µM | – |
